Experimental data: patent US20080069815A1, “ANTI-OSTEOPONTIN ANTIBODY AND USE THEREOF” (IMMUNO-BIOLOGICAL LABORATORIES CO., LTD., priority 2001, published 2008)

Assays:
[1] = system: mouse collagen arthritis model; assay: Mouse collagen arthritis model (arthritogenic antibody cocktail/LPS); format: in vivo; conditions: for Arthritis score: 3.2 mg/kg orally once daily; for Volume of leg edema / Body weight change / Quantity of feed intake: 3.2 mg/kg
Description: For arthritis induction, an arthritogenic antibody cocktail (under the trade name of a cocktail for arthritis, Arthrogen-CIA® mAb, Arthritogenic mAb cocktail; manufactured by Iwai Chemical Pharmaceutical Co., Ltd.) recognizing four epitopes specific to collagen was used. To a mouse was intravenously administered the arthritogenic cocktail; 3 days later, LPS (100 μg) was intraperitoneally administered to thereby elicit arthritis. Arthritis was observed on day 3 after LPS dosing, which reached maximum on day 6.
Immediately before LPS dosing and 3 days later, the M5 antibody was intravenously administered at a dose of 40 μg, 150 μg or 400 μg. As the control group, a rabbit IgG-dosed group (at a dose of 400 μg) was arranged. Additionally, the anti-mouse TNF-α antibody was intravenously administered at a dose of 200 μg/mouse immediately before LPS administration and 3 days later. As the control group, a rat IgG-dosed group (at a dose of 200 μg) was arranged. Further, MTX was orally given (at a dose of 3.2 mg/kg) once daily on the very day of LPS dosing and thereafter. Then, MTX dissolved in 5 ml of 0.5% methyl cellulose solution was used. For the control group, 5 ml of 0.5% methyl cellulose solution was arranged.
Assessment was done per one group of five animals, concerning four items, namely arthritis score, leg edema, body weight change and feed intake.

[2] = system: α9-transformed SW480 cell adhesion to vitronectin; assay: Adhesion of α9-transformed SW480 cell to vitronectin; format: cell-based, human; conditions: 1 μg/ml vitronectin; 200 μM peptide; FIG. 2A
[3] = system: human fibroblast TIG-7 adhesion to OPN; assay: Inhibition of TIG-7 cell adhesion to OPN (CHO/OPN-a coated plate); format: cell-based; conditions: peptide 100 μg/ml; FIG. 1A
Description: It was examined by the following method as to whether or not the monoclonal antibodies inhibited cell adhesion to OPN. First, a 96-well plate was precoated with various concentrations of the CHO/OPN-a at 4° C. overnight, which was then treated with 0.5% BSA in PBS under conditions of 37° C. for 10 minutes, so as to block non-specific adhesion. A human fibroblast TIG-7 or SW480 cell transformed with the cDNA of an integrin subunit α9 (referred to as “α9-transformed SW480 cell” hereinafter) was suspended in D-MEM containing 0.25% BSA; 200 μl of the resulting cell suspension (at a cell concentration of 5×10^4 cells/well) was injected in a 96-well plate precoated with the CHO/OPN-a or nOPN, in the presence or absence of various concentrations of the monoclonal antibodies or synthetic peptides, for incubation at 37° C. for one hour.
The culture medium was discarded from the plate, and all the wells were rinsed twice with D-MEM containing 0.25% BSA. The adherent cells were fixed and stained with 0.5% crystal violet in 20% methanol for 30 minutes.
All the wells were rinsed three times with water, and the adherent cells were then solubilized into 20% acetic acid. The resulting supernatant recovered from each well was analyzed with an immunoreader, to measure the absorbance at 590 nm to determine the relative count of the cells adhering to the well. […]

[4] = system: murine NIH3T3 cell adhesion to mOPN/de-GST; assay: Inhibition of NIH3T3 cell adhesion to murine OPN (mOPN/de-GST); format: cell-based, mouse; conditions: peptide 100 μg/ml; FIG. 7
Description: It was examined by the method described in the reference (S. Kon et al., (2002): J. Cell. Biochem., 84(2), 420-432) as to whether or not the M5 antibody might inhibit cell adhesion to OPN. As the OPN, the full-length murine OPN was used, from which the GST moiety had preliminarily been removed with PreScission protease (Amersham Pharmacia Biotech, Tokyo, Japan) (referred to as “mOPN/de-GST” hereinafter) was used. As the cell, murine NIH3T3 cell was used.

Q: Which “Overall effect in mouse arthritis model (arthritis score, onset of arthritis, leg edema)” value [1] does the source give for `CN(Cc1cnc2nc(N)nc(N)c2n1)c1ccc(C(=O)N[C@@H](CCC(=O)O)C(=O)O)cc1` [MTX] here?
A: almost no pharmaceutical efficacy

Q: What about the Arthritis score ([1]; day 3) of the same molecule?
A: 0.8 ± 0.4

Q: And the Arthritis score ([1]; day 4)?
A: 1.8 ± 0.7

Q: And the Arthritis score ([1]; day 5)?
A: 6.0 ± 0.6

Q: What about the Arthritis score ([1]; day 6) of the same molecule?
A: 6.0 ± 0.6

Q: What about the “Volume of leg edema” value ([1]; Foreleg) of the same molecule?
A: 0.047 ± 0.003 mL

Q: What about the “Volume of leg edema” value ([1]; Hind leg) of the same molecule?
A: 0.132 ± 0.003 mL

Q: And the Body weight change ([1]; day 0 to day 3 post-dosing)?
A: -1.5 g

Q: What about the “Quantity of feed intake” value ([1]; day 0 to day 3 post-dosing) of the same molecule?
A: 0.8 g/mouse/day

Q: And the Body weight change ([1]; day 3 to day 6 post-dosing)?
A: -1.8 g

Q: What about the “Quantity of feed intake” value ([1]; day 3 to day 6 post-dosing) of the same molecule?
A: 2.1 g/mouse/day

Q: How did the “Inhibition of adhesion between vitronectin and α9-transformed SW480 cell by peptide” value [2] turn out when GRGDSP was run?
A: inhibited

Q: And the “Inhibition of TIG-7 adhesion to OPN by peptide” value [3]?
A: apparently inhibited

Q: And the “Inhibition of NIH3T3 adhesion to mOPN/de-GST by peptide” value [4]?
A: apparently inhibited
